Laboratory results from paper PMC7194015, “Proline-Rich Antimicrobial Peptides in Medicinal Maggots of Lucilia sericata Interact With Bacterial DnaK But Do Not Inhibit Protein Synthesis” (Frontiers in Pharmacology, 2020).
Ends that are not written are not given here.

Legend:
bacterial chaperone DnaK = target: T1, bacterial chaperone DnaK (Escherichia coli, UniProt P0A6Y8); experiment: FRET assay, DnaK-binding (fluorescence quenching with DnaK-BHQ10); conditions: for maximum quenching effect: n = 3; for Kd: N-terminal 5(6)-carboxyfluorescein, C-terminal amide, quenching assay, non-linear regression (SlideWrite v7.01)
T1 construct: made in house
T1 sequence (P0A6Y8 whole entry): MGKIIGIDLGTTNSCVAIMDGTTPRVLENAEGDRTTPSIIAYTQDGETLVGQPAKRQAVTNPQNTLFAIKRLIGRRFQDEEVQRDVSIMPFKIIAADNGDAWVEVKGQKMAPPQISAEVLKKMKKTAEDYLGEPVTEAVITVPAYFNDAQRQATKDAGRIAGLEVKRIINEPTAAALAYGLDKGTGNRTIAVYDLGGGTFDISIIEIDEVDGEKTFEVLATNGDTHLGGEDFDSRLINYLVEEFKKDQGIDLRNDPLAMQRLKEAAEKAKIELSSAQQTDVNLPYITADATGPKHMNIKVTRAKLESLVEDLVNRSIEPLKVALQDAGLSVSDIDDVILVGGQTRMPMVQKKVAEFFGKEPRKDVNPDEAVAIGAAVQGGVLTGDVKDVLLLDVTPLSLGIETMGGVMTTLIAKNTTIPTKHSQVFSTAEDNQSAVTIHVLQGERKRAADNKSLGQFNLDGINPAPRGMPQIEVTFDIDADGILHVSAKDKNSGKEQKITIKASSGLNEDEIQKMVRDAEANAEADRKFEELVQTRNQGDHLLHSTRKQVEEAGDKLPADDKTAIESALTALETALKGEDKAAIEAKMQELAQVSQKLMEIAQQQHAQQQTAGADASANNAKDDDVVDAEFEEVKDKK
Experimental: Lser-stomoxyn, Lser-PRP2, and Lser-PRP3 were synthesized by PANATecs (Tübingen, Germany) at >95% purity with C-terminal amidation (Table 1). For the quenching assay, Lser-PRP2 and Lser-PRP3 were synthesized with N-terminal 5(6)-carboxyfluorescein and C-terminal amidation. DnaK was produced by Michael Zahn ([Knappe et al., 2011]). The Black Hole Quencher 10 succinimidyl ester (BHQ10-NHS ester, > 75% purity) was purchased from BioCat (Heidelberg, Germany).
DnaK (2 mg/ml) was dialyzed against the modifying buffer (20 mM Na2HPO4, 20 mM KH2PO4, 5 mM MgCl2, 150 mM KCl; pH 7.4) before labeling with a 10-fold molar excess of BHQ10-NHS ester ([Kreisig et al., 2011]; [Dobslaff et al., 2012]). Excess BHQ10 was removed by further dialysis and the final DnaK concentration was adjusted to […]. To evaluate the labeling efficiency, we measured BHQ10 absorption at 515 nm, and calculated the ratio of dye to protein (mean labeling degree, nine BHQ10 molecules per DnaK).
We mixed 50 μl of the fluorescein-modified peptides (1.3 nM) with 50 μl of a 1:4 serial dilution series of DnaK-BHQ10 in modification buffer (0.8–13,000 nM) in a solid black 384-well plate and incubated the plates for 2 h as previously described ([Dobslaff et al., 2012]). To calculate the quenching effect, control mixtures (50 μl of the peptide solution and 50 μl of the modification buffer) were recorded five times. We recorded the fluorescence intensity on a Paradigm fluorescence reader using a fluorescence (fluo-rhod) detection cartridge (excitation wavelength = 485 ± 10 nm, emission wavelength = 535 ± 12.5 nm, integration time = 140 ms). The quenching effect was expressed as the percentage of the fluorescence intensity of the control quenched after the addition of DnaK-BHQ10.
Dissociation constants (Kd) were determined using SlideWrite v7.01. The quenching effects were plotted against the DnaK concentration (logarithmic abscissa). Kd values were calculated by non-linear regression using the dose–response logistical transition function of the program [y = a 0 + a 1/(1 + x/a 2) a3].

[1] = tested on: panel of 114 multi-drug resistant clinical isolates; parameters: method as in Hirsch et al., 2019; conditions: ref Hirsch et al., 2019; cited from earlier work
E. coli JM83 = experiment: Atomic force microscopy of bacterial cell surface; format: cell-based; conditions: 90 min at 37°C
Experimental: Bacterial samples were prepared for atomic force microscopy (AFM) as previously described ([Zdybicka-Barabas et al., 2012]; [Zdybicka-Barabas et al., 2013]). Briefly, log-phase E. coli JM83 cells (OD600 = 0.2) in 100 µL lysogeny broth were incubated at 37°C for 90 min in the presence of individual or combined AMPs, or without AMPs as a negative control. We used concentrations of 50 μM Lser-PRP2, 50 μM Lser-PRP3, and 0.25 μM Lser-stomoxyn. The samples were centrifuged (8,000 × g, 4°C, 10 min), washed twice with apyrogenic water, resuspended in 5 μl apyrogenic water, applied to mica disks and allowed to dry at 28°C overnight.
The cell surface was imaged using a NanoScope V AFM (Veeco, Plainview, NY, USA) in Peak Force QNM operation mode and a silicon tip NSG 30 with a spring constant of 20 N/m (NT-MDT, Moscow, Russian Federation). The results were processed using Nanoscope Analysis v1.40 (Veeco). Three fields on each mica disk were imaged. The roughness values were measured over the entire bacterial cell surface in 3 × 3 µm areas. The average surface root mean square (RMS) roughness was calculated from 25 fields (300 × 300 nm). Section profiles and 3D images were produced using WSxM v5.0 ([Horcas et al., 2007]).

Gram-negative bacteria = conditions: ref Pöppel et al., 2015; Hirsch et al., 2019; cited from earlier work
Source text: Several previous investigations have addressed the AMP repertoire of L. sericata. […] More recent studies have characterized the defensin-family AMP lucifensin ([Andersen et al., 2010]; [Čeřovský et al., 2010]; [Čeřovský et al., 2011]) and the antifungal AMP lucimycin ([P ...

[2] = tested on: E. coli JM83 cells carrying plasmid pCH110; experiment: Bacterial membrane permeabilization assay (β-galactosidase release); format: cell-based
Experimental: We tested the activity of the L. sericata AMPs against E. coli JM83, carrying plasmid pCH110 (Pharmacia-Amersham, Piscatway, NJ, USA).
Membrane permeabilization was quantified by measuring the activity of β-galactosidase released from E. coli JM83 cells carrying plasmid pCH110, which encodes a constitutive, cytoplasmic form of the enzyme ([Zdybicka-Barabas et al., 2013]). The peptides were pre-incubated for 15 min at 37°C in 23 μl 20 mM phosphate buffer (pH 6.8) before adding 2 μl of a suspension of mid-logarithmic phase E. coli cells (5 × 10^5 colony forming units, prepared in the same buffer). The final AMP concentrations were 0.0625–2 µM Lser-stomoxyn and up to 50 µM for the Lser-PRPs ([Pöppel et al., 2015]; [Hirsch et al., 2019]). After incubation for 45 min at 37°C, we added 220 μl 20 mM HEPES/150 mM NaCl (pH 7.5) and 5 μl 50 mM p-nitrophenyl-β-D-galactopyranoside. We incubated the samples at 37°C for a further 90 min and then measured the absorbance at 405 nm, which is proportional to the amount of released β-galactosidase. Live bacteria incubated in growth medium as well as dead bacteria after treatment with 5 µM synthetic cecropin B (Sigma-Aldrich) served as control samples. We set the perforation level of dead bacteria to 100%. All assays were performed six times in triplicate for each type of sample.

[3] = Figure 2 legend, N-terminal 5(6)-carboxyfluorescein peptide, DnaK-BHQ10
[4] = N-terminal 5(6)-carboxyfluorescein peptide (1.3 nM) + DnaK-BHQ10 (0.8–13,000 nM), 2 h, 384-well, pH 7.4, sigmoidal curve

Substance	maximum quenching effect (bacterial chaperone DnaK; [3]) [%]	maximum quenching effect (bacterial chaperone DnaK; [4])	Kd (bacterial chaperone DnaK) [nM]	activity against clinical isolates [1]	Adhesion forces (E. coli JM83; 0.25 µM, mean ± SD of 25 fields, control 0.174 (± 0.04), ***p ≤ 0.001 vs control, letter a: differs from combination)	Roughness (E. coli JM83; 0.25 µM, mean ± SD of 25 fields, control 0.843 (± 0.22), ***p ≤ 0.001 vs control, letter b: differs from combination)	Young's modulus (E. coli JM83; 0.25 µM, mean ± SD of 25 fields, control 2458 (± 24.52), **p ≤ 0.01 vs control)	flagella (E. coli JM83; Lser-stomoxyn 0.25 µM alone)	cell surface granularity vs controls (E. coli JM83; Lser-stomoxyn 0.25 µM or Lser-PRP2 50 µM alone)	antibacterial activity (Gram-negative bacteria)	bacterial membrane permeabilization ([2]; 0.25 µM, abstract) [%]	bacterial membrane permeabilization ([2]; 1 µM, 45 min at 37°C, bacteria killed by 5 µM cecropin B = 100%, n = 6) [%]	bacterial membrane permeabilization ([2]; 2 µM, 45 min at 37°C, bacteria killed by 5 µM cecropin B = 100%, n = 6) [%]	bacterial membrane permeabilization ([2]; 0.0625 or 0.125 µM, 45 min at 37°C, 20 mM phosphate pH 6.8, n = 6)	bacterial membrane permeabilization ([2]; 0.25–0.5 µM, 45 min at 37°C, bacteria killed by 5 µM cecropin B = 100%, n = 6)
EWRPHGSIGGSGLRPGRPQTLPPQRPRRPDFNGPRHRF-NH2 [Lser-PRP2]	> 80	85–88%	140 ± 10												
GFRKRFNKLVKKVKHTIKETANVSKDVAIVAGSGVAVGAAMG [Lser-Stomoxyn, Lucilia sericata canonical α-helical antimicrobial peptide, synthesized at >95% purity with C-terminal amidation]				showed activity against clinical isolates of E. coli, Enterobacter spp., Klebsiella spp., Salmonella enterica, Citrobacter freundii, and Acinetobacter spp., as well as multiple isolates of P. aeruginosa	0.236 (± 0.079)^a*** nN	1.102 (± 0.373)^b*** nm	2601 (± 32.19)** MPa	lost their flagella	considerably more granular than that of the controls	particularly active against Gram-negative bacteria	1	12	40	little evidence of permeabilization	1–2%
SPFVDRPRRPIQHNGPKPRIITNPPFNPNARPAW-NH2 [Lser-PRP3]	> 80	85–88%	300 ± 6												
